Here are results for 22 compounds from ChEMBL document CHEMBL3600310 (J Med Chem, 2015).

For orientation: IC50 means the concentration needed to halve the response being measured.

Bounds are passed on as bounds.

Assay type in all cases: functional, cell-based
One test concerns A549. Description: Cytotoxicity against human A549 cells after 72 hrs by MTT assay. As to conditions: A549, 72 h.
A further test deals with MDA-MB-435. Briefly: Cytotoxicity against human MDA-MB-435 cells after 72 hrs by MTT assay. The conditions noted are these: MDA-MB-435, 72 h. Background: Tetrazolium dyes change colour on reduction, which living cells bring about.
Another test concerns HCT-116. Description: Cytotoxicity against human HCT116 cells after 72 hrs by MTT assay. The conditions noted are these: HCT-116, 72 h.

For the compound `Cc1ccc2c(c1)OC1c3[nH]c4ccccc4c3CCN1C2=S` (stereo unspecified), the IC50 with A549 worked out at 65.2 µM; with MDA-MB-435, 60.3 µM; in the test on HCT-116, 44.4 µM.
For `CN1c2ccccc2C(=O)N2CCCc3c([nH]c4ccc(O)cc34)C21` (stereo unspecified), the figures for the IC50 with A549, in the test with MDA-MB-435 and with HCT-116 were 32.4 µM, 69.2 µM and 59.8 µM, respectively.
The matching figures for `O=C1c2cc(Br)ccc2OC2c3[nH]c4ccccc4c3CCN12` (stereo unspecified): 1.6 µM, 3.7 µM and 13.8 µM.
Turning to `O=C1c2ccc(C(F)(F)F)cc2OC2c3[nH]c4ccc(O)cc4c3CCN12` (stereo unspecified), the IC50 with A549 was 14.7 µM; in the test with MDA-MB-435, 10.5 µM; in the test with HCT-116, 10.9 µM.
The matching figures for `O=C1c2cc([N+](=O)[O-])ccc2OC2c3[nH]c4ccccc4c3CCN12` (stereo unspecified): > 200 µM, > 200 µM and > 200 µM.
For the compound `O=C1c2ccc(F)cc2OC2c3[nH]c4ccccc4c3CCN12` (stereo unspecified), the IC50 in the test on A549 came to 95 µM; in the test with MDA-MB-435 it was 171 µM; with HCT-116, 6.7 µM.
As for `CN1c2cscc2C(=O)N2CCc3c([nH]c4ccc(O)cc34)C21` (stereo unspecified), the figures for the IC50 in the test on A549, in the test on MDA-MB-435 and in the test on HCT-116 were 3.9 µM, 32.3 µM and 4.8 µM, respectively.
For the compound `Cc1cccc2c1C(=O)N1CCc3c([nH]c4ccc(O)cc34)C1O2` (stereo unspecified), the IC50 with A549 was 1.8 µM; in the test on MDA-MB-435, < 0.003 µM; in the test with HCT-116, < 0.003 µM.
In the case of `COc1ccc2[nH]c3c(c2c1)CCN1C(=O)c2ccccc2C31O` (stereo unspecified), the IC50 in the test on A549, in the test on MDA-MB-435 and in the test on HCT-116 was > 200 µM each time.
Regarding `CCCNc1ccc2c(c1)C(=O)N1CCc3c([nH]c4ccccc34)C1O2` (stereo unspecified), the IC50 with A549 was 173 µM; in the test on MDA-MB-435 it was > 200 µM; in the test with HCT-116, 16.7 µM.
The like results for `COc1ccc2[nH]c3c(c2c1)CCN1C(=O)c2sccc2N(C)C31` (stereo unspecified) were, in that order, > 200 µM, > 200 µM and > 200 µM.
Consider `O=C1c2ccccc2OC2c3[nH]c4ccccc4c3CCN12` (stereo unspecified), for which the IC50 with A549 was found to be 2.4 µM; with MDA-MB-435 it was 3 µM; in the test with HCT-116, 3.1 µM.
The matching figures for `COc1ccc2[nH]c3c(c2c1)CCN1C(=O)c2ccccc2[C@H]31`: 193 µM, > 200 µM and 30.9 µM.
On to `COc1ccc2[nH]c3c(c2c1)CCN1C(=O)c2c(ccn2C)N(C)C31` (stereo unspecified), for which the IC50 stood at 28.5 µM with A549, 42 µM with MDA-MB-435 and 54.1 µM in the test with HCT-116.
On to `COc1ccc2[nH]c3c(c2c1)CCN1C(=O)c2cc(Cl)ccc2OC31` (stereo unspecified), for which the IC50 with A549 stood at 0.05 µM; in the test on MDA-MB-435, 2.4 µM; with HCT-116 it was 1 µM.
For the compound `COc1ccc2[nH]c3c(c2c1)CCN1C(=O)c2ccc(Cl)cc2OC31` (stereo unspecified), the IC50 with A549 turned out to be 3.8 µM; in the test on MDA-MB-435, 4.6 µM; in the test on HCT-116, 8.7 µM.
For the compound `O=C1c2c(ccc3ccccc23)OC2c3[nH]c4ccc(O)cc4c3CCN12` (stereo unspecified), the IC50 with A549 stood at 3.1 µM; in the test on MDA-MB-435, 2.7 µM; with HCT-116, 6.3 µM.
In the case of `COc1ccc2[nH]c3c(c2c1)CCN1C(=O)c2cscc2N(C)C31` (stereo unspecified), the results for the IC50 with A549, in the test on MDA-MB-435 and in the test with HCT-116 were 32.3 µM, 49 µM and 94.9 µM, respectively.
Turning to `O=C1c2cc(O)ccc2OC2c3[nH]c4ccccc4c3CCN12` (stereo unspecified), the IC50 in the test with A549 stood at 16.2 µM; in the test on MDA-MB-435, 11.5 µM; in the test with HCT-116, 1.9 µM.
The like results for `COc1ccc2c(c1)OC1c3[nH]c4ccc(OC)cc4c3CCN1C2=O` (stereo unspecified) were, in that order, > 200 µM, > 200 µM and > 200 µM.
The matching figures for `O=C1c2ccc(O)cc2OC2c3[nH]c4ccccc4c3CCN12` (stereo unspecified): 17.5 µM, 29.3 µM and 54.1 µM.
For the compound `COc1ccc2[nH]c3c(c2c1)CCN1C(=O)c2ccccc2OC31` (stereo unspecified), the IC50 in the test with A549, with MDA-MB-435 and with HCT-116 was > 200 µM each time.
